Experimental data taken from patent US9681664B2, “Macrocyclic picolinamides as fungicides” (Dow Agrosciences LLC, priority 2012, dated 2017).

Key:
[1] = system: Blumeria graminis f. sp. tritici; Synonym: Erysiphe graminis f. sp. tritici; assay: Wheat powdery mildew (ERYSGT) disease control; type: in vivo; conditions: 24 h, 1 Day Protectant, high volume, read-out: Disease Control ERYSGT 1 DP
Protocol: Technical grades of materials were dissolved in acetone, which were then mixed with nine volumes of water containing 110 ppm Triton X-100. The fungicide solutions were applied onto wheat seedlings using an automated booth sprayer to run-off. All sprayed plants were allowed to air dry prior to further handling. All fungicides were evaluated using the aforementioned method for their activity vs. all target diseases. Wheat leaf blotch and brown rust activity were also evaluated using track spray applications, in which case the fungicides were formulated as EC formulations, containing 0.1% Trycol 5941 in the spray solutions. Wheat plants (variety Yuma) were grown from seed in a greenhouse in 50% mineral soil/50% soil-less Metro mix until the first leaf was fully emerged, with 7-10 seedlings per pot. These plants were inoculated by dusting with infected stock plants 24 hr after fungicide treatments. After inoculation the plants were kept in a greenhouse set at 20° C. for disease to develop. Fungicide formulation, application and disease assessment on the sprayed leaves followed the procedures as described in the Example A.

[2] = system: Venturia inaequalis; assay: Apple scab (VENTIN) disease control; type: in vivo; conditions: 24 h, High volume application, 1 Day Protectant, read-out: VENTIN 1 DP disease control
Protocol: Technical grades of materials were dissolved in acetone, which were then mixed with nine volumes of water containing 110 ppm Triton X-100. The fungicide solutions were applied onto wheat seedlings using an automated booth sprayer to run-off. All sprayed plants were allowed to air dry prior to further handling. All fungicides were evaluated using the aforementioned method for their activity vs. all target diseases. Wheat leaf blotch and brown rust activity were also evaluated using track spray applications, in which case the fungicides were formulated as EC formulations, containing 0.1% Trycol 5941 in the spray solutions. Apple seedlings (variety McIntosh) were grown in soil-less Metro mix, with one plant per pot. Seedlings with two expanding young leaves at the top (older leaves at bottom of the plants were trimmed) were used in the test. Plants were inoculated with a spore suspension of Venturia inaequalis 24 hr after fungicide treatment and kept in a 22° C. dew chamber with 100% RH for 48 hr, and then moved to a greenhouse set at 20° C. for disease to develop. Fungicide formulation, application and disease assessment on the sprayed leaves followed the procedures as described in the Example A.

## COc1ccnc(C(=O)N[C@H]2CCC[C@H](Oc3ccccc3)[C@@H](Oc3ccccc3)[C@H](C)OC2=O)c1OCOC(C)=O [F20]
[1]
  pest or weed control at 100 ppm: 0 to 80%
[2]
  pest or weed control at 100 ppm: 0 to 80%

## COc1ccnc(C(=O)N[C@H]2CCC[C@H](OCC(C)C)[C@@H](Oc3ccccc3)[C@H](C)OC2=O)c1OCOC(C)=O [F26]
[1]
  pest or weed control at 100 ppm: 0 to 80%

## COc1ccnc(C(=O)N[C@H]2CCC[C@H](Oc3ccccc3)[C@@H](OCC(C)C)[C@H](C)OC2=O)c1OCOC(C)=O [F28]
other
  melting point: 135 to 137 °C
[1]
  pest or weed control at 100 ppm: 0 to 80%
[2]
  pest or weed control at 100 ppm: 80 to 100%

## COc1ccnc(C(=O)N[C@H]2CCC[C@H](OCC(C)C)[C@@H](OCC(C)C)[C@H](C)OC2=O)c1OCOC(C)=O [F29]
[1]
  pest or weed control at 100 ppm: 80 to 100%
[2]
  pest or weed control at 100 ppm: 80 to 100%

## COc1ccnc(C(=O)N[C@H]2CCC[C@H](OCc3ccccc3)[C@@H](OCc3ccccc3)[C@H](C)OC2=O)c1OCOC(C)=O [F30]
other
  melting point: 42 to 52 °C
[1]
  pest or weed control at 100 ppm: < 0%
[2]
  pest or weed control at 100 ppm: 80 to 100%

## COc1ccnc(C(=O)N[C@H]2CCC[C@H](OCc3ccccc3)[C@@H](Oc3ccccc3)[C@H](C)OC2=O)c1OCOC(C)=O [F31]
other
  melting point: 49 to 55 °C
[1]
  pest or weed control at 100 ppm: 0 to 80%

## COc1ccnc(C(=O)N[C@H]2CCC[C@H](OCC(C)C)[C@@H](Oc3ccccc3)[C@H](C)OC2=O)c1OCOC(=O)C(C)C [F34]
[1]
  pest or weed control at 100 ppm: 0 to 80%

## COc1ccnc(C(=O)N[C@H]2CCC[C@H](Oc3ccccc3)[C@@H](OCC(C)C)[C@H](C)OC2=O)c1OCOC(=O)C(C)C [F35]
[1]
  pest or weed control at 100 ppm: 0 to 80%

## COc1ccnc(C(=O)N[C@H]2CCC[C@H](Oc3ccccc3)[C@@H](Oc3ccccc3)[C@H](C)OC2=O)c1OCOC(=O)C(C)C [F36]
[1]
  pest or weed control at 100 ppm: < 0%

## COc1ccnc(C(=O)N[C@H]2CCC[C@H](OCC(C)C)[C@@H](OCC(C)C)[C@H](C)OC2=O)c1OCOC(=O)C(C)C [F37]
[1]
  pest or weed control at 100 ppm: 0 to 80%

## COc1ccnc(C(=O)N[C@H]2CCC[C@H](OCC(C)C)[C@@H](OC3CCCC3)[C@H](C)OC2=O)c1OCOC(=O)C(C)C [F38]
[1]
  pest or weed control at 100 ppm: 0 to 80%

## COc1ccnc(C(=O)N[C@H]2CCC[C@H](OCC(C)C)[C@@H](OC3CCCC3)[C@H](C)OC2=O)c1OCOC(C)=O [F39]
[1]
  pest or weed control at 100 ppm: 80 to 100%
[2]
  pest or weed control at 100 ppm: 80 to 100%

## CCCO[C@H]1CCC[C@H](NC(=O)c2nccc(OC)c2OC(C)=O)C(=O)O[C@@H](C)[C@@H]1Oc1ccccc1 [F141]
[2]
  pest or weed control at 100 ppm: 0 to 80%

## CCOCC(=O)OCOc1c(OC)ccnc1C(=O)N[C@H]1CCC[C@H](Oc2ccccc2)[C@@H](OC(=O)C2CCCC2)[C@H](C)OC1=O [F237]
[2]
  pest or weed control at 100 ppm: 80 to 100%

## COc1ccnc(C(=O)N[C@H]2CCC[C@H](Oc3ccccc3)[C@@H](OC(=O)C3CC3)[C@H](C)OC2=O)c1OCOC(=O)C(C)C [F241]
[2]
  pest or weed control at 100 ppm: 0 to 80%

## COc1ccnc(C(=O)N[C@H]2CCC[C@H](Oc3ccccc3)[C@@H](OC(=O)C3CC3)[C@H](C)OC2=O)c1OC(C)=O [F242]
[2]
  pest or weed control at 100 ppm: 0 to 80%

## C=C(C)CO[C@H]1CCC[C@H](NC(=O)c2nccc(OC)c2OCOC(C)=O)C(=O)O[C@@H](C)[C@@H]1OC [F250]
[2]
  pest or weed control at 100 ppm: 80 to 100%

## COc1ccnc(C(=O)N[C@H]2CCC[C@H](OCC(C)C)[C@@H](OC)[C@H](C)OC2=O)c1OCOC(C)=O [F251]
[2]
  pest or weed control at 100 ppm: < 0%

## COc1ccnc(C(=O)N[C@H]2CCC[C@H](Oc3ccccc3)[C@@H](OC)[C@H](C)OC2=O)c1OCOC(C)=O [F252]
[2]
  pest or weed control at 100 ppm: 0 to 80%

## C=C(C)CO[C@H]1CCC[C@H](NC(=O)c2nccc(OC)c2OCOC(=O)C(C)C)C(=O)O[C@@H](C)[C@@H]1OC [F253]
[2]
  pest or weed control at 100 ppm: 80 to 100%

## COc1ccnc(C(=O)N[C@H]2CCC[C@H](OCC(C)C)[C@@H](OC)[C@H](C)OC2=O)c1OCOC(=O)C(C)C [F254]
[2]
  pest or weed control at 100 ppm: 80 to 100%

## COc1ccnc(C(=O)N[C@H]2CCC[C@H](Oc3ccccc3)[C@@H](OC)[C@H](C)OC2=O)c1OCOC(=O)C(C)C [F255]
[2]
  pest or weed control at 100 ppm: 80 to 100%
